Source: US5332812A, “Solid-phase substrate containing modified heparin” (Board of Regents, The University of Texas System, priority 1991, dated 1994)
“Also recorded” adds a separate entry of the source.

Columns and labels:
B16 melanoma heparanase [1] = assay: Enzymatic degradation of 3H-labeled glycosaminoglycans by B16 melanoma cell extract, analysed by high-speed gel permeation chromatography; type: biochemical, mouse; conditions: for Degradation (heparanase susceptibility): 3H-labeled glycosaminoglycan, cell extract 80 ug protein, pH 6.0, 6 hr at 37 C, 20 mM SAL, decrease in area of high Mr half of peak; for Cleavage by melanoma heparanase (in words): B16 melanoma cell extracts in presence of SAL, FIG. 2; for Percentage degradation of the original substrate: first 6 h incubation with B16 cell extract
Text: The abilities of B16 cells to degrade HS from various origins and other purified glycosaminoglycans (heparin, chondroitin 4-sulfate, chondroitin 6-sulfate, dermatan sulfate, keratan sulfate, and hyaluronic acid) has been studied. […] HS metabolically labeled with [^35 S] sulfate was purified from basement membrane producing EHS sarcoma and PYS-2 carcinoma cells, and subendothelial matrices of bovine aortic endothelial (BAE) and corneal endothelial (BCE) cells (ibid). HS molecules purified from bovine lung and other glycosaminoglycans were labeled with tritium at their reducing termini using NaB[^3 H]4. […] In order to determine specific HS cleavage points, the newly formed reducing termini of HS fragments were investigated by: labeling with NaB[^3 H]4; hydrolysis to monosaccharides; and analysis of these saccharides by paper chromatography.
High-speed gel permeation chromatography. […] A one hundred microliter aliquot of sample solution was delivered into the injection port, and the chromatographic elution was performed with 0.2M sodium chloride at a flow rate of 1.0 ml/min at 55° C. […] In the analysis of radiolabeled materials, fractions corresponding to each 36 s of elution (0.6 ml) were collected and mixed with 3.0 ml of Liquiscint (National Diagnostics, Comerville, N.J.), and counted on a Beckman LS 2800 liquid scintillation counter (Beckman Instruments, Irvine, Calif.).
Enzymatic degradation of unmodified and modified HS. […] The incubation was carried out at 37° C. with gentle mixing, and was terminated by chilling the mixture to 4° C. and adding 20 ul of trichloroacetic acid to a final concentration of 5%. The supernatant was obtained by centrifugation at 9800×g for 5 min and it was subjected to analysis by high-speed gel permeation chromatography.
The effect of N-desulfation and N-acetylation of HS on its susceptibility to melanoma heparanase was assessed using HS labeled with tritium at the reducing terminal saccharide. […] HS labeled with tritium at the reducing end was N-desulfated by solvolysis with DMSO, and N-desulfated [^3 H]HS was then N-acetylated with acetic anhydride. These three ^3 H-labeled, chemically modified HS molecules were analyzed by cellulose acetate electrophoresis in 0.5M pyridine-acetate buffer, pH 5.0.
N-Desulfated and N-acetylated heparin.

[2] = system: human melanoma heparanase; assay: Degradation by heparanase obtained from a human melanoma cell line; type: biochemical
B16 melanoma heparanase [3] = conditions: labeled glycosaminoglycans, with or without D-saccharic acid 1,4-lactone; cited from earlier work
B16 melanoma heparanase [4] = conditions: cited from earlier work
[5] = system: human melanoma heparanase; assay: Inhibition of human melanoma heparanase; type: biochemical
Text: Properties of human melanoma heparanase.

Substance	Degradation (heparanase susceptibility) (B16 melanoma heparanase [1])	Degradation by B16 cell extracts (earlier publications) (B16 melanoma heparanase [3])	further results
Carboxyl reduced heparin	- (less than 5%)		
Heparan sulfate [Heparan sulfate (HS)]	+ (more than 80%)	degraded into fragments of characteristic molecular weight	Degradation by human melanoma heparanase (in words) [2]: degrades heparan sulfate; Cleavage by melanoma heparanase (in words) (B16 melanoma heparanase [1]): cleaved by melanoma heparanase at high rates
Heparin	- (less than 5%)	essentially undegraded; also recorded: inactive	Percentage degradation of the original substrate (B16 melanoma heparanase [1]): less than 5%; Inhibition of HS degradation / B16 melanoma heparanase (earlier publications) (B16 melanoma heparanase [4]): inhibited HS degradation; also recorded: potent inhibitor; Inhibition of melanoma heparanase (in words) [5]: potent inhibitors
N,O-Desulfated HS	+ (more than 80%)		
N,O-Desulfated and N-acetylated HS	+ (more than 80%)		
N,O-Desulfated and N-acetylated heparin	± (5% to 15%)		
N,O-Desulfated heparin	- (less than 5%)		
N-Desulfated and N-methylated heparin	- (less than 5%)		
N-Desulfated heparin	- (less than 5%)		
N-desulfated N-acetylated heparan sulfate [N-Desulfated and N-acetylated HS]	+ (more than 80%)		Degradation by human melanoma heparanase (in words) [2]: efficiently cleave; Cleavage by melanoma heparanase (in words) (B16 melanoma heparanase [1]): cleaved by melanoma heparanase at high rates
N-desulfated N-acetylated heparin [N-Desulfated and N-acetylated heparin]	± (5% to 15%)		Degradation by human melanoma heparanase (in words) [2]: only partially degrade; Percentage degradation of the original substrate (B16 melanoma heparanase [1]): approximately 20%; Further cleavage after prolonged incubation (B16 melanoma heparanase [1]; prolonged incubation with B16 cell extract): not further cleaved
N-desulfated heparan sulfate [N-Desulfated HS]	+ (more than 80%)		Degradation by human melanoma heparanase (in words) [2]: efficiently cleave; Cleavage by melanoma heparanase (in words) (B16 melanoma heparanase [1]): cleaved by melanoma heparanase at high rates
chondroitin 4-sulfate		essentially undegraded	
chondroitin 6-sulfate		essentially undegraded	
dermatan sulfate		essentially undegraded	
dextransulfate			Inhibition of melanoma heparanase (in words) [5]: potent inhibitors
hyaluronic acid		essentially undegraded	
keratan sulfate		essentially undegraded	
